Non-standard residues stand in square brackets, D forms with d. Residues, ends and D or L forms follow the SMILES beside them. *: point of attachment. NOTA = O=C(O)CN1CCN(CC(=O)O)CCN(CC(=O)*)CC1
Tests used:
melanocortin-1 receptor = target: T1, melanocortin-1 receptor (Mus musculus, UniProt Q01727); settings: comparison value for the optimal peptide construct for Cu-64; cited from earlier work
T1 construct: endogenous in cells; host or cells: B16/F1 cells

melanoma cells = test: In vitro cell binding of radiolabeled peptide; assay type: cell-based; settings: 1 million cells per well, 320,000 cpm; maximum at 10 min, constant for 50 min
Description: Tissue culture wells containing 1 million cells each were incubated with 320,000 cpm of ^62Cu-NOTA-2-GGG-Arg11 for various times between 5 min and 50 min then washed and counted. […] In vitro cell binding of 10% for the ^62Cu-NOTA-2-GGG-Arg11 peptide is similar to then in vitro cell uptake percentages for HPLC purified.

B16/F1 flank tumor [1] = test: Biodistribution in B16/F1 flank tumor bearing C57 mice; assay type: in vivo; settings: for Tumor uptake: tail vein
Description: (§1) Pilot Animal Studies using ^62Cu labeled Peptide: Biodistribution and PET studies of radiolabeled ^62Cu-NOTA-2-GGG-Arg11 were performed in B16/F1 flank tumor bearing C57 mice utilizing the newly designed nanogenerator with the 5 μg lyophilized peptide kits. Fourteen male and female, 6-8 week old mice were injected with B16/F1 cells (1,000,000/mouse) in the flanks or shoulders while anesthetized to induce solid tumors. B16/F1 solid tumors appeared in 14 days post inoculation. Radiolabeled peptides were injected through the tail vein at an average of 0.27 mCi per dose administration for biodistribution studies and an average of 0.7 mCi for imaging, achieving specific activities of 111.2-140.4 Ci/μmol (mean=122.1 Ci/μmol), and an average of 94.0% radiolabeling yield without a purification step after synthesis. Animals in the biodistribution studies were sacrificed by cervical dislocation followed by pneumothorax at 10, 20, and 40 min post administration, major organs removed, weighed, and radioactivity quantitated in a windowed gamma counter.
(§2) Uptake was measured for the tumor, blood, heart, lung, liver, small intestine, intestine, kidneys, muscle, carcass and paper, and skin. Tumor uptake was rapid, reaching 4.65±0.48 ID/g and 9.43±2.69% ID/g at 20 and 40 min post injection, respectively.

[2] = as above; assay type: in vivo; settings: both sexes, C57, mouse, tumor (B16/F1 flank tumor), iv, 0.27 mCi, total radioactivity; 40 min post injection; tail vein
Description: as §1, §2

B16/F1 flank tumor [3] = test: PET imaging study in tumor bearing mice (microPET-Focus); assay type: in vivo; settings: static imaging for 20 min starting 10 min post administration
Description: as §1, with “Radiolabeled peptides were injected through the tail vein at an average of 0.27 mCi per dose administration for biodistribution studies and an average of 0.7 mCi for imaging, achieving specific activities of 111.2-140.4 Ci/μmol (mean=122.1 Ci/μmol), and an average of 94.0% radiolabeling yield without a purification step after synthesis.” left out
A preliminary PET imaging study was also performed, in which two anesthetized animals were used for PET imaging studies starting at 10 min post administration of the radiolabeled peptide and statically imaged with a microPET-Focus scanner (Siemens Preclinical Solutions, Knoxville, Tenn.) for 20 min (see FIG. 9). […] Background levels of radioactivity in the blood and major organs and tissues were low, except for the kidneys.

T1 sequence (Q01727 whole entry): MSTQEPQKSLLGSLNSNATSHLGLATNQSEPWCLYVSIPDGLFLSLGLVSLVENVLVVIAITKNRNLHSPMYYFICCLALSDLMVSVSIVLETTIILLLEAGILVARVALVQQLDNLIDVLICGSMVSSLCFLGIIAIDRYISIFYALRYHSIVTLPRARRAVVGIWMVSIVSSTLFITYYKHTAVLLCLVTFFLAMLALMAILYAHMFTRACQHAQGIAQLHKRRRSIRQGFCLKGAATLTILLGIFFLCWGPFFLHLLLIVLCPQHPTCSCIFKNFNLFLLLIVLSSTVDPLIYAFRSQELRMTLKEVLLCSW

| Molecule | IC50 (melanocortin-1 receptor) [nM] | Maximum cell uptake of the radiolabeled peptide (melanoma cells) [%] | Tumor uptake in the blocked mice relative to radiolabeled peptide alone (B16/F1 flank tumor [1]; 20 min post injection, 20 μg non-labeled NDP-MSH co-injected) | Tumor uptake (B16/F1 flank tumor [1]; 20 min post injection) [%ID/g] | Tumor uptake (B16/F1 flank tumor [1]; 40 min post injection) [% ID/g] | Clearance and route of excretion (B16/F1 flank tumor [1]; biodistribution at 10, 20 and 40 min) | tissue uptake at 40 min [2] [%ID/g] | PET tumor visualization (B16/F1 flank tumor [3]) |
| --- | --- | --- | --- | --- | --- | --- | --- | --- |
| CBTE2A-ReCCMSH [CBTE2A conjugated ReCCMSH peptide, the optimal peptide construct for Cu-64] | 5.4 | – | – | – | – | – | – | – |
| CC(C)[C@H](NC(=O)[C@@H]1CCCN1C(=O)[C@H](CCCNC(=N)N)NC(=O)[C@H](CS)NC(=O)[C@H](Cc1c[nH]c2ccccc12)NC(=O)[C@H](CCCNC(=N)N)NC(=O)[C@@H](Cc1ccccc1)NC(=O)[C@H](Cc1c[nH]cn1)NC(=O)[C@H](CCC(=O)O)NC(=O)[C@H](CS)NC(=O)[C@H](CS)NC(=O)CNC(=O)CNC(=O)CNC(=O)CN1CCN(CC(=O)O)CCN(CC(=O)O)CC1)C(N)=O [^62Cu-NOTA-2-GGG-Arg11, metal not drawn] ({NOTA}-GGGCCEH[dF]RWCRPV-NH2) | – | 10 | 0.55 % of tumor uptake in the mice receiving the radiolabeled peptide alone | 4.65 ± 0.48 | 9.43±2.69 | clearance from the blood and non-target tissues except for the kidneys, which was the primary route of excretion | 9.43 ± 2.69 | tumor is clearly visualized |

Reference: patent publication US20110280770A1, “Nanogenerator” (priority 2010, published 2011)
